Measured values from BindingDB's records for doi:10.1111/cbdd.12016 (Peking University Health Science Center, 2012).

Molecular target: Beta-secretase 1 (Homo sapiens, UniProt P56817)
Assay: Fluorescence Resonance Energy Transfer (FRET) Assay
Description: BACE1 inhibitory evaluation was carried out using a Fluorescence Resonance Energy Transfer (FRET) assay kit supplied by PanVera (kit P2985, Madison, WI, USA).

Chain of Beta-secretase 1 (P56817 whole entry): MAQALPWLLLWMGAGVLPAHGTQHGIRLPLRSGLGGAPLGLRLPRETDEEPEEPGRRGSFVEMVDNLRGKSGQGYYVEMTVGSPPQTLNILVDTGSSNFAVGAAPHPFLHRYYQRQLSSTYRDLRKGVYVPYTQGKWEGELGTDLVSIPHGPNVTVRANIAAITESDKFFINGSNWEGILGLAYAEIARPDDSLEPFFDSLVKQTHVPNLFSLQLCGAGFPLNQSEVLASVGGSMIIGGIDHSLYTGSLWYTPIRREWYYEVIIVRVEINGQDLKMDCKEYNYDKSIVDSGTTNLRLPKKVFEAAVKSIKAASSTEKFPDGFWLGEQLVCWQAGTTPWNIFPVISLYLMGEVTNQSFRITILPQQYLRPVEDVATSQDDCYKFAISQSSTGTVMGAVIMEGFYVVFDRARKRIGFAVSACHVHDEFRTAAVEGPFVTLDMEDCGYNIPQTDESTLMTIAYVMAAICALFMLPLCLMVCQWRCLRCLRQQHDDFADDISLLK

SMILES | IC50
CCCOc1cccc(-c2cc(Oc3ccccc3)cc(C(=N)N)c2)c1 [Benzimidamide, 6a] | 8.02 µM
CCCCOc1cccc(-c2cc(Oc3ccccc3F)cc(C(=N)N)c2)c1 [Benzimidamide, 6d] | 3.35 µM
CCCOc1cccc(-c2cc(Oc3ccccc3F)cc(C(=N)N)c2)c1 [Benzimidamide, 6c] | 4.36 µM

Other lines, results leading:

IC50 | SMILES
9.35 µM | CCCCOc1cccc(-c2cc(C#N)cc(Oc3ccccc3F)c2)c1 [Benzonitrile, 5d]
7.03 µM | CCCCOc1cccc(-c2cc(Oc3ccccc3)cc(C(=N)N)c2)c1 [Benzimidamide, 6b]
80.3 µM | CCCOc1cccc(-c2cc(C#N)cc(Oc3ccccc3F)c2)c1 [Benzonitrile, 5c]
